In patent US7569695B2, “Dyes for the detection or quantification of desirable target molecules” (Enzo Life Sciences, Inc., priority 2005, dated 2009):

Columns and labels:
BSA = BSA (Bos taurus, UniProt P02769); assay: Fluorescence enhancement of dyes upon binding to a protein (BSA); settings: ratio of fluorescence (emission maxima) with BSA vs without, 1 μM dye, 150 μg BSA; for Fluorescence Enhancement with SDS: 10 mM TRIS pH 7.5, 0.05% SDS; for Fluorescence Enhancement without SDS: 10 mM TRIS pH 7.5, no SDS
Experimental: Some of the dyes of the preceding examples were tested for changes in fluorescence upon binding to a protein (BSA). 1 μM of each dye was mixed with 150 μg of BSA in 10 mM TRIS (pH 7.5) with and without 0.05% SDS. Measurements were carried out on a standard fluorometer with and without BSA being present. Ratios were then calculated for the amount of fluorescence (emission maxima) in the presence of BSA compared to its absence.

[1] = tested on: 78 bp amplicon from the anti-sense C construct; assay: Amplification of nucleic acids in the presence of dye using a standard PCR machine (Example 34); format: biochemical; settings: for amplicon synthesis (gel analysis, FIG. 2): 20 cycles
Experimental: The experiment shown in Example 33 was repeated using a standard PCR machine for synthesis to see if the effects observed in Example 33 was dependent upon the rapid heating and cooling steps used in the Light Cycler.
A master mixture was made up of: • 500 µl of 2× PCR mix described in example 33 • 20 µl of 25 mM MgCl2 • 175 µl of DEPC treated H2O • 10 ul of 1 u/l ung (Epicentre) • 10 µl of 10 mg/ml BSA (New England Biolabs, Beverly, Mass.) • 10 l Taq polymease (Perkin Elmer)+10 µl of TaqStart (Clontech) PCR conditions were 2.5 µl of target template+2.0 l of dye was added to 15.5 µl of Master mixture incubated at 45° C. for 10 minutes and then amplified using cycles of: • a) 94° C. for 30 seconds • b) 65° C. for 30 seconds • c) 72° C. for 1 minute
A duplicate set of samples was amplified with one set being taken out after 20 cycles of amplification and the second set undergoing 40 cycles. […] The other effect previously observed was also seen, i.e. non-target amplicon synthesis seen in the no Dye reaction (lane 1) was reduced with the 1:200 dilution of SYBR Green and the 1:10 dilution of Dye 109 again repeating the results of Example 33.

[2] = tested on: 78 bp amplicon from the anti-sense C construct; assay: Amplification of nucleic acids on the Light Cycler in the presence of dye (Example 33); format: biochemical
Experimental: A target template was amplified on the Light Cycler (Roche) in the presence of various amounts of Dye 109 from Example 14. As a control, various amounts of SYBR Green (Molecular Probes, Eugene, Oreg.) were also included. The template was a 1:500 dilution of a 78 bp amplicon made in a previous reaction from the anti-sense C construct described in Liu et al. 1997 (J. Virol. 71: 4079-4085). A 2×PCR mix was made up of 20 mM Tris pH 8.3, 50 mM KCl, 4 mM MgCl2, 0.4 mM dCTP, 0.4 mM dGTP, 0.4 mM dATP, 0.8 mM dUTP, […] and […].
The Forward Primer sequence is comprised of 20 nucleotides: 5′ […] 3′ (SEQ ID NO: 1). It is an artificial sequence comprising a fusion of human Ul and HIV sequences. Bases 1-7 (CATGATC) of the first sequence are derived from plasmid pHSD-4 and comprise sequences from the human Ul gene. Bases […] (GATCCGGATGGGAGGTG) of the second sequence are derived from a region of the BAL strain of HIV containing the Tat/Rev splice acceptor site.
The Reverse Primer sequence is comprised of 22 nucleotides: 5′[…] (SEQ ID NO: 2). It is an artificial sequence comprising a fusion of human Ul and HIV sequences. Bases 1-11 (GCACATCCGGA) of the first sequence are derived from plasmid pHSD-4 and comprise sequences from the human Ul gene. Bases […] (GATCCGGATGGGAGGTG) of the second sequence are derived from a region of the BAL strain of HIV containing the Tat/Rev splice acceptor site.
The 78 bp amplicon synthesized with Forward Primer (SEQ ID NO: 1) and Reverse Primer (SEQ ID NO: 2) has the following sequence: 5′ […] 3′ (SEQ ID NO: 3). It is an artificial sequence comprising a fusion of human Ul and HIV sequences. Bases 1-11 (GCACATCCGGA) and 68-78 (TCCGGATGTGC) are derived from plasmid pHSD-4 and comprise sequences from the human Ul gene. Bases […] are derived from a region of the BAL strain of HIV containing the Tat/Rev splice acceptor site.
A master mixture was made up of: • 350 µl of 2×PCR mix described above • 14 µl of 25 mM MgCl2 • 122.5 µl of DEPC treated H2O • 14 ul of 1 u/l ung (Epicentre) • 7 µl of 10 mg/ml BSA (New England Biolabs, Beverly, Mass.) • 7 l Taq polymease (Perkin Elmer)+7 µl of TaqStart (Clontech) • 2.5 µl of target template+2.0 l of various dilutions of dyes were added to 15.5 µl of Master mixture, incubated at 45° C. for 10 minutes and then amplified by: • 1) Melting • 2 minutes @ 95° C. • 2) Cycling • a) Denaturation step: 0 seconds @ 95° C. • b) Annealing step: 5 seconds @ 69° C. for first cycle; subsequent cycles were each reduced by 0.5° C. until 65° C. was reached and all annealing steps in further cycles were carried out at this temperature • c) Extension step: 5 seconds @ 72° C. • 3) After completion of 56 cycles, all samples were maintained at 4° C. until analyzed.
After the amplification reactions were finished, the samples were analyzed by gel electrophoresis. For SYBR Green, the recommended reaction concentration is 1:10,000. As such, the amplification products shown in lanes 5 and 6 using 2 l of […] dilution in a 20 l reaction (final=1:8,000) is approximately representative of the product from the standard procedure. For Dye 109, the reactions are listed in terms of dilutions of a stock of Dye 109 with an OD reading of 200 taken at 495 nm. […] However, when lower dilutions of the dyes were added there was no inhibition of the process.

[3] = tested on: 78 bp amplicon of the anti-sense C construct; assay: Amplification on the Light Cycler with closer series of dye dilutions, 17 cycles (Example 36); format: biochemical; settings: a fairly broad spectrum of dye dilutions
Experimental: A series of dilutions that were closer together was carried out for both Dye 109a and Dye 122. The target template was amplified on the Light Cycler and the template was the 1:50,000 dilution of the 78 bp amplicon of the anti-sense C construct described previously.
A master mixture was made up as described previously in Example 35.
2.0 l of target template (1:50,000 dilution of the antisense C amplicon)+2.0 l of various dye concentrations were added to 16 µl of Master mix and then amplified as described previously in Example 33 and stopping after 17 amplification cycles.

[4] = tested on: 78 bp amplicon of the anti-sense C construct; assay: Amplification on the Light Cycler in the presence of Dye 122 and 109a, 19 cycles (Example 35); format: biochemical
Text: A target template was amplified on the Light Cycler (Roche) in the presence of various amounts of SYBR Green and Dye 122 from Example 32. In addition, a byproduct from the silica gel chromatography of Dye 109 in step (g) of Example 14 was also used. This compound is believed to have a single protonation of one of the amines of Dye 109 and as such will be termed Dye 109a. The stock of Dye 122 was OD=200 measured at 488 nm and the stock of Dye 109a was OD=200 measured at 498 nm. The template was a 1:50,000 dilution of the 78 bp amplicon of the anti-sense C construct described previously. • A master-mixture was made up of: • 350 µl of 2×PCR mix described in Example 33 • 14 l of 25 mM MgCl2 • 175.0 l of DEPC treated H2O • 7 l of 10 mg/ml BSA (New England Biolabs, Beverly, Mass.) • 7 l Taq polymease (Perkin Elmer)+7 l of TaqStart (Clontech)
2.0 l of target template+2.0 l of various dye dilutions were added to 16 µl of Master mixture, and then amplified as described previously in Example 33 except that the incubation at 45° C. for 10 minutes was eliminated since ung was not used for this series of amplifications. The amplification was stopped after 19 cycles. The results of this series of amplifications are seen in FIG. 3. […] For Dye 109a, similar features were seen where 1:10 was inhibitory (lane 18) and 1:30 was optimal (lanes 19 and 20).

anti-sense C amplicon = assay: Amplification of various amounts of target with fixed dye levels, 29 cycles (Example 37); format: biochemical
Experimental: In the previous experiments, a fixed amount of target was amplified in the presence of varying level of dyes. The eventual use of these dyes is going to be with a fixed amount of dye and varying levels of targets. As such, an experiment was carried out using previously determined optimal levels of dyes and various amounts of input target (again using the anti-sense C as a model). • Dilution 1=1:100,000 • Dilution 2=1:1,000,000 • Dilution 3=1:10,000,000 • Dilution 4=1:100,000,000 • Dilution 5=1:1,000,000,000 • Dilution 6=1:10,000,000,000
Selected amounts of target template were amplified on the Light Cycler (Roche) in the presence of various amounts of Dye 122, Dye 109a and SYBR Green.
A master mixture was made up of: • 380 l of 2×PCR mix described in Example 33 • 15.2 l of 25 mM MgCl2 • 190.0 l of DEPC treated H2O • 7.6 l of 10 mg/ml BSA (New England Biolabs, Beverly, Mass.) • 7.6 l Taq polymease (Perkin Elmer)+7.6 l of TaqStart (Clontech)
2.0 l of target template (1:50,000 dilution of the antisense C amplicon)+2.0 l of various dye concentrations were added to 16 µl of Master mixture and amplified as described previously in Example 33 stopping after 29 cycles. Dye additions were from the 1:1000 dilution of SYBR Green, 1:30 of Dye 109a and 1:30 of Dye 122.
At the highest input level (Dil 2 1:1,000,000 dilution of amplicon) no evidence of amplification is seen in the sample without dye.

BSA, sequence (P02769 25-607): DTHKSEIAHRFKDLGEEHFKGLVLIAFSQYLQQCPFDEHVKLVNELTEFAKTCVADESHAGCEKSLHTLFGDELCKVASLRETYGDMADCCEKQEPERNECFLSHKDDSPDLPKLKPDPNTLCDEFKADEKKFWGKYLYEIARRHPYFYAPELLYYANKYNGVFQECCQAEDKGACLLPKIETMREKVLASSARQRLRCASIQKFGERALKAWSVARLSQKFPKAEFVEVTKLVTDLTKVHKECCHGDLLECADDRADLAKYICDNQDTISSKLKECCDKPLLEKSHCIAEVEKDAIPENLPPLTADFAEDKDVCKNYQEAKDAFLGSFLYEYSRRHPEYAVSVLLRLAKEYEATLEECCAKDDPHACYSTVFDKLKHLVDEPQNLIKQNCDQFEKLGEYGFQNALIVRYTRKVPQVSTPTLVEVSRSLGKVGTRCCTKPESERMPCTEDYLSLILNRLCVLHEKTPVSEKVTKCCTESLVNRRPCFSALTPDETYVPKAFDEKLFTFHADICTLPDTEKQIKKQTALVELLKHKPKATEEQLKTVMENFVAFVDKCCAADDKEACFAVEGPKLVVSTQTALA

Row | Compound | Fluorescence Enhancement with SDS (BSA) | Fluorescence Enhancement without SDS (BSA) | also measured
1 | CCCCCCN(CCCCCC)c1ccc(C=Cc2cc[n+](CCCP(=O)(OCC)OCC)c3ccccc23)cc1.[Br-] [Dye 115] | 78 | 100 | –
2 | C[n+]1c(/C=C/c2cc3c4c(c2)CCCN4CCC3)sc2cc(S(=O)(=O)N3CCCCC3)ccc21 [Dye 101] | 140 | 33 | –
3 | CN(C)CCN(C)C1=C/C(=C\c2sc3cc(S(=O)(=O)N4CCCCC4)ccc3[n+]2C)c2ccccc2N1c1ccccc1 [Dye 109] | – | – | amplicon synthesis (gel analysis, FIG. 2) ([1]; 1:10 dilution of Dye 109, lanes 12 and 13): a single discrete band; amplicon synthesis (gel analysis, FIG. 2) ([1]; 1:15 dilution of Dye 109, lanes 14 and 15): lesser amounts of synthesis; amplicon synthesis (gel analysis, FIG. 2) ([1]; 1:20 and 1:25 dilutions of Dye 109, lanes 16/17 and 18/19): faint bands; non-target amplicon synthesis compared to the no Dye reaction ([1]; 40 cycles, 1:10 dilution of Dye 109): reduced; synthesis of target derived amplicons compared to the reaction without any dye ([2]; 1:25 dilution of Dye 109 stock (OD 200 at 495 nm), lanes 11 and 12): enhancement of overall synthesis of target derived amplicons; synthesis of non-target derived amplicons ([2]; 1:25 dilution of Dye 109 stock, lanes 11 and 12): elimination or suppression of the synthesis of non-target derived amplicons; detection of real time synthesis in the Light Cycler ([2]; data not shown): could be used for this purpose; amplification (gel analysis, FIG. 1) ([2]; undiluted Dye 109 stock (OD 200 at 495 nm), 56 cycles): strong inhibition of amplification
4 | CCCCCCN(CCCCCC)c1ccc(C=Cc2sc3cc(S(=O)(=O)N(CCCCCC)CCCCCC)ccc3[n+]2C)cc1 [Dye 113] | 33 | None | –
5 | CCCCCCN(CCCCCC)c1ccc(C=Cc2sc3cc(S(=O)(=O)N4CCCCC4)ccc3[n+]2CCCCS(=O)(=O)[O-])cc1 [Dye 114] | 70 | 6 | –
6 | CCn1c2ccccc2c2cc(/C=C/c3sc4cc(S(=O)(=O)N5CCCCC5)ccc4[n+]3CCCCS(=O)(=O)[O-])ccc21 [Dye 103] | 10 | None | –
7 | CCCCN(CCCC)c1ccc(C=Cc2cc[n+](CCCP(=O)(OCC)OCC)c3ccccc23)cc1.[Br-] [Dye 119] | 92 | 95 | –
8 | CCOP(=O)(CCC[n+]1ccc(C=Cc2ccc3c(c2)c2ccccc2n3CC)c2ccccc21)OCC.[Br-] [Dye 116] | None | 12 | –
9 | CN(C)CCN(C)C1=C/C(=C\c2sc3cc(S(=O)(=O)N4CCCCC4)ccc3[n+]2C)c2ccccc2N1c1ccccc1 [Dye 122] | – | – | amplification (gel analysis, FIG. 4) [3]: strong enhancement effect; amplification (gel analysis, FIG. 3) ([4]; 1:10 dilution of dye stock (OD=200)): inhibitory; amplification (gel analysis, FIG. 3) ([4]; 1:30 dilution of dye stock (OD=200)): the best; amplification (gel analysis, FIG. 3) ([4]; next dye dilutions (1:100 etc.)): less amplification; amplification product (gel analysis, FIG. 5) (anti-sense C amplicon; Dil 2 (1:1,000,000) target input, 1:30 dilution of dye): strong prominent band; amplification product (gel analysis, FIG. 5) (anti-sense C amplicon; target inputs diluted 10-100× more than Dil 2, 1:30 dilution of dye): visible bands
